Source: US11427591B2, “Kinase inhibitors” (priority 2018, dated 2022)
pIC50: −log10 of the molar value. Where two headings read alike, the source gives them in different places. Blank lines part the entries; values can stand above or below the compound they belong to.

How the values were obtained:
[1] = test system: Human hepatic stellate cell LX-2; experiment: LX-2 Fibrosis Assay (inhibition of collagen production, TGF-b stimulated); type: cell-based; conditions: for pIC50: 4 ng/mL TGF-b, 48 hours, read-out: Inhibition of Collagen Production in LX-2 Cells IC50
Protocol: Human hepatic stellate cell LX-2 were grown in DMEM (Invitrogen, 11960) supplied with 1% MEM Non-Essential Amino Acids (Invitrogen, 11140-050), 2% fetal bovine serum (Hyclone, SV30087.03), Penicillin (100 U/mL)-streptomycin (100 μg/mL) (Millipore, TMS-AB2-C) and 2 mM L-Glutamine (Invitrogen, 25030-001). After the cells grew in 12-well plates for 24 hours, the cell culture medium was changed to the same as above except using 0.4% fetal bovine serum. After 20 hour growth in the reduced serum medium, the cells were treated with indicated doses of compounds for 30 minutes. Subsequently, the cells were stimulated with 4 ng/mL TGF-b (R&D Systems, 240-B-002) for 48 hours. The cells were rinsed twice with DPBS before being harvested with 100 μL RIPA buffer (Sigma, R0278) supplemented with protease inhibitor cocktail (Roche, 04693132001) at 4° C. The total protein in each sample was quantified using BCA Protein Assay Kit (Pierce™, 23227) and equal amount of total protein of each sample was subject to Western blot analysis. Antibodies used were mouse anti-α-Actin (SPM332) (sc-365970), mouse anti-CTGF (E5) (sc-365970), and mouse anti-collagen α1 (3G3) (sc-293182), from Santa Cruz Biotechnologies; and mouse anti-GAPDH (6C5) (EMD Millipore, MAB374). […] As such, these compounds be used as inhibitors of fibrosis by inhibiting function of the discoidin domain receptor family.

[2] = Cytotoxicity, CellTiter-Glo Luminescent Cell Viability Assay; conditions: human, LX-2 cells
Protocol: (§1) LX-2 cells were seeded into 96 well plates in the presence of compounds and allowed to grow for 72 hours before CellTiter-Glo® Luminescent Cell Viability Assay was carried out according the manufacturer's instruction.

[3] = test system: primary tumor cells freshly isolated from patient derived xenograft tumor model; experiment: Cholangiocarcinoma (bile duct cancer) tumor chemosensitivity assay (TCA), anti-proliferation; type: cell-based; conditions: for Max (%) / Min (%): inhibition rate
Protocol: Cholangiocarcinoma (Bile Duct Cancer)
All the compounds were tested starting from 30 μM, 3-fold serial dilution.
(§2) Add 195 μL of assay medium into each well of the V-bottom plate; then transfer 5 μL of the stock compound solution of each concentration from the stock plate (400× stock). Add 5 μL of DMSO into the Blank and Control wells. Pipette up and down to mix well. This V-plate is designated as the 10× concentrate compound plate.
For cell viability test, add compounds as below. Then incubate the plates at 37° C., 5% CO2, 95% air and 100% relative humidity for 3 days or 6 days. For day 0 plate, add 15 μL of the DMSO-medium into the Control wells. The final DMSO concentration was 0.25%. Proceed to cell viability assay. For TCA plates, add 15 μL of the compound-medium from the 10× concentrate compound plate into the cells in 96-well assay plate according to the plate map. Add 15 μL of the DMSO-medium into the Blank and Control wells. The final DMSO concentration was 0.25%.
The procedures were performed according to the Promega CellTiter-Glo Luminescent Cell Viability Assay Kit (Promega-G7573): Thaw the CellTiter-Glo buffer and equilibrate to room temperature prior to use; Equilibrate the lyophilized CellTiter-Glo Substrate to room temperature prior to use; Transfer the entire liquid volume of CellTiter-Glo Buffer into the amber bottle containing CellTiter-Glo Substrate to reconstitute the lyophilized enzyme/substrate mixture. This forms the CellTiter-Glo Reagent; Mix by gently vortexing to obtain a homogeneous solution; Equilibrate the plate and its contents to room temperature for approximately 30 minutes; Add 75 μL (equal to the half volume of culture medium present in each well) CellTiter-Glo Reagent in each well. Cover plates with aluminum foil to protect from light; Mix contents for 2 minutes on an orbital shaker to induce cell lysis; Allow the plate to incubate at room temperature for 10 minutes to stabilize luminescent signal; and Transfer the mixture of cell and CTG buffer to the detection 96 well plate and record luminescence on the 2104 EnVision plate reader. An ATP standard curve at the same time points is prepared.
Inhibition rate (IR) of the tested compounds was determined by the following formula: IR (%)=(1−(RLU compound−RLU blank)/(RLU control−RLU blank))*100%. The inhibitions of different dose of compound were calculated in Excel file, and then were used to plot inhibition curve and evaluate related parameters, such as Min, Max and IC50. The data were interpreted by GraphPad Prism software. […]

[4] = test system: primary tumor cells freshly isolated from PC-07-0024 patient derived xenograft (PDX) tumor model; experiment: Pancreatic cancer tumor chemosensitivity assay (TCA), anti-proliferation, PC-07-0024; type: cell-based; conditions: for IC50 / pIC50: Homo sapiens; for IC50: read-out: Relative IC50 (μM); for pIC50: read-out: Relative IC50
Protocol: (§3) Compound 1 is compared to Gemcitabine, which is a chemotherapy drug used in various types of cancers (e.g., breast cancer, ovarian cancer, non-small cell lung cancer, pancreatic cancer, and bladder cancer). The compounds, at 30 μM, 3 fold serial dilution, are tested in primary tumor cells freshly isolated from PC-07-0024 and LU-01-0523 patient derived xenograft (PDX) tumor model using tumor chemosensitivity assay (TCA).
as §2, with “The study was performed as follows. Add 195” for “Add 195”
(§4) For cell viability test, add compounds as below. Then incubate the plates at 37° C., 5% CO2, 95% air and 100% relative humidity for 3 days or 6 days. For day 0 plate, add 15 μL of the DMSO-medium into the Control wells. The final DMSO concentration was 0.25%. Proceed to cell viability assay. For TCA plates, add 15 μL of the compound-medium from the 10× concentrate compound plate into the cells in 96-well assay plate according to the plate map. Add 15 μL of the DMSO-medium into the Blank and Control wells. The final DMSO concentration was 0.25%. The assay is performed similar to the protocol of the bile duct cancer study provided above.

[5] = test system: primary tumor cells freshly isolated from LU-01-0523 patient derived xenograft (PDX) tumor model; experiment: Tumor chemosensitivity assay (TCA), anti-proliferation, LU-01-0523; type: cell-based; conditions: for IC50 / pIC50: Homo sapiens; for IC50: read-out: Relative IC50 (μM); for pIC50: read-out: Relative IC50
Protocol: as §3
as §2, with “The study was performed as follows. Add 195” for “Add 195”
as §4

[6] = test system: LX-2 cells; experiment: Cytotoxicity, CellTiter-Glo Luminescent Cell Viability Assay
Protocol: as §1

- IC50 ([1]; Homo sapiens, LX-2, 48 h, read-out: Inhibition of Collagen Production in LX-2 Cells IC50(nM)): 13 nM
- pIC50 ([3]; Homo sapiens, 72 h): < 4.52
- pIC50 ([3]; Homo sapiens, 144 h): < 4.52
- IC50 ([4]; 72 h): 5.7 µM
- IC50 ([4]; 144 h): 2.65 µM
- IC50 ([5]; 72 h): > 30 µM
- IC50 ([5]; 144 h): > 30 µM
Compound: Cc1ccc2c(Nc3cccc(C(F)(F)F)c3)noc2c1C#Cc1cnc2cccnn12 [Compound 1, 7-(Imidazo[1,2-b]pyridazin-3-ylethynyl)-6-methyl-N-(3-(trifluoromethyl)phenyl)benzo[d]isoxazol-3-amine]
- CC50 at 72 h [2]: 3000 nM
- Max (%) ([3]; Day 3): 2.56%
- Min (%) ([3]; Day 3): −8.75%
- Max (%) ([3]; Day 6): 2.88%
- Min (%) ([3]; Day 6): −27.04%
- Bottom (%) ([4]; PC-07-0024, Day 3): −11.36%
- Top (%) ([4]; PC-07-0024, Day 3): 42.29%
- Bottom (%) ([4]; PC-07-0024, Day 6): −26.68%
- Top (%) ([4]; PC-07-0024, Day 6): 37.60%
- Bottom (%) ([5]; LU-01-0523, Day 3): −5.49%
- Top (%) ([5]; LU-01-0523, Day 3): 100.00%
- Bottom (%) ([5]; LU-01-0523, Day 6): −16.14%
- Top (%) ([5]; LU-01-0523, Day 6): 0.00%

Compound: Cc1ccc2c(Nc3cc(CN4CCOCC4)cc(C(F)(F)F)c3)noc2c1C#Cc1cnc2cccnn12 [Compound 111]
- pIC50 [1]: 5.71
- CC50 [6]: > 42300 nM

Compound: Cc1ccc2c(Nc3cc(CNC4CC4)cc(C(F)(F)F)c3)noc2c1C#Cc1cnc2cccnn12 [Compound 112]
- pIC50 [1]: 5.78
- CC50 [6]: 1360 nM

Compound: Cc1ccc2c(Nc3cc(CN4CCCC4)cc(C(F)(F)F)c3)noc2c1C#Cc1cnc2cccnn12 [Compound 113]
- pIC50 [1]: 5.59
- CC50 [6]: 4250 nM

Compound: Cc1ccc2c(Nc3cccc(C(C)(C)C#N)c3)noc2c1C#Cc1cnc2cccnn12 [Compound 115]
- pIC50 [1]: 6.30
- CC50 [6]: 1900 nM

Compound: Cc1ccc2c(Nc3cc(CN4CCOCC4)cc(C(C)(C)C#N)c3)noc2c1C#Cc1cnc2cccnn12 [Compound 117]
- pIC50 [1]: 6.80
- CC50 [6]: > 57200 nM

Compound: Cc1ccc2c(Nc3cccc(OC(F)(F)F)c3)noc2c1C#Cc1cnc2cccnn12 [Compound 120]
- pIC50 [1]: 5.53
- CC50 [6]: 2410 nM

Compound: Cc1ccc2c(Nc3cncc(C(F)(F)F)c3)noc2c1C#Cc1cnc2cccnn12 [Compound 121]
- pIC50 [1]: 7.21
- CC50 [6]: > 40000 nM
- pIC50 ([3]; Day 3, read-out: IC50): < 4.52
- pIC50 ([3]; Day 6, read-out: IC50): 4.54
- Max (%) ([3]; Day 3): 49.93%
- Min (%) ([3]; Day 3): −11.42%
- Max (%) ([3]; Day 6): 51.14%
- Min (%) ([3]; Day 6): −18.96%

- pIC50 ([3]; Homo sapiens, 72 h, Day 3, read-out: IC50): 4.65
- pIC50 ([3]; Homo sapiens, 144 h, Day 6, read-out: IC50): 4.82
Compound: Cc1nc(Nc2ncc(C(=O)Nc3c(C)cccc3Cl)s2)cc(N2CCN(CCO)CC2)n1 [Dasatinib, reference compound]
- Max (%) ([3]; Day 3): 66.18%
- Min (%) ([3]; Day 3): 8.00%
- Max (%) ([3]; Day 6): 89.06%
- Min (%) ([3]; Day 6): 14.03%

- pIC50 ([4]; 72 h, PC-07-0024, Day 3): 5.40
- pIC50 ([4]; 144 h, PC-07-0024, Day 6, data exclsn): 8.05
- pIC50 ([4]; 144 h, PC-07-0024, Day 6): 5.23
- pIC50 ([5]; 72 h, LU-01-0523, Day 3): < 4.52
- pIC50 ([5]; 144 h, LU-01-0523, Day 6): 5.87
Compound: Nc1ccn([C@@H]2O[C@H](CO)[C@@H](O)C2(F)F)c(=O)n1 [Gemcitabine]
- Bottom (%) ([4]; PC-07-0024, Day 3): 10.21%
- Top (%) ([4]; PC-07-0024, Day 3): 46.53%
- Bottom (%) ([4]; PC-07-0024, Day 6): 23.38%
- Top (%) ([4]; PC-07-0024, Day 6): 72.30%
- Bottom (%) ([4]; PC-07-0024, Day 6, data exclsn): 0.00%
- Top (%) ([4]; PC-07-0024, Day 6, data exclsn): 30.34%
- Bottom (%) ([5]; LU-01-0523, Day 3): 4.79%
- Top (%) ([5]; LU-01-0523, Day 3): 100.00%
- Bottom (%) ([5]; LU-01-0523, Day 6): 0.00%
- Top (%) ([5]; LU-01-0523, Day 6): 100.00%
